Assay results taken from ChEMBL document CHEMBL4177643, “Trisubstituted purine inhibitors of PDGFRα and their antileukemic activity in the human eosinophilic cell line EOL-1” (Bioorg Med Chem, 2017).
pIC50: −log10 of the molar value.

Assays:
EOL1 [1] = test: Cytotoxicity against human EOL-1 cells assessed as growth inhibition after 72 hrs by calcein-AM dye based fluorescence assay; format: functional; details: EOL1, 72 h
MCF7 = test: Cytotoxicity against human MCF7 cells assessed as growth inhibition after 72 hrs by calcein-AM dye based fluorescence assay; format: functional; details: MCF7, 72 h
HCC827 [2] = test: Cell cycle arrest in human HCC827 cells assessed as G1/G2-M ratio at GI50 concentration after 24 hrs by propidium iodide staining-based flow cytometry relative to control; format: functional
HCC827 [3] = test: Cytotoxicity against human HCC827 cells assessed as growth inhibition after 72 hrs by calcein-AM dye based fluorescence assay; format: functional; details: HCC827, 72 h
BT-474 = test: Cytotoxicity against human BT474 cells assessed as growth inhibition after 72 hrs by calcein-AM dye based fluorescence assay; format: functional; details: BT-474, 72 h
[4] = target: Cyclin-dependent kinase 2/cyclin E1 (Homo sapiens, UniProt P24941); test: Inhibition of CDK2/cyclin E (unknown origin) expressed in baculovirus infected insect Sf9 cells using histone H1 as substrate in presence of [gamma-33P]ATP
EOL1 [5] = test: Cell cycle arrest in human EOL-1 cells assessed as G1/G2-M ratio at GI50 concentration after 24 hrs by propidium iodide staining-based flow cytometry relative to control; format: functional
K562 [6] = test: Cytotoxicity against human K562 cells assessed as growth inhibition after 72 hrs by calcein-AM dye based fluorescence assay; format: functional; details: K562, 72 h
[7] = target: Platelet-derived growth factor receptor alpha (Homo sapiens, UniProt P16234); test: Inhibition of recombinant human N-terminal GST-His6 tagged PDGFRalpha (Q551 to L1089 residues) expressed in Sf9 insect cells using poly(Ala,Glu,Lys,Tyr)6:2:5:1 hydrobromide as substrate in presence of [gamma-33P]ATP
Platelet-derived growth factor receptor alpha, sequence (P16234 whole entry, the tested form may be a part): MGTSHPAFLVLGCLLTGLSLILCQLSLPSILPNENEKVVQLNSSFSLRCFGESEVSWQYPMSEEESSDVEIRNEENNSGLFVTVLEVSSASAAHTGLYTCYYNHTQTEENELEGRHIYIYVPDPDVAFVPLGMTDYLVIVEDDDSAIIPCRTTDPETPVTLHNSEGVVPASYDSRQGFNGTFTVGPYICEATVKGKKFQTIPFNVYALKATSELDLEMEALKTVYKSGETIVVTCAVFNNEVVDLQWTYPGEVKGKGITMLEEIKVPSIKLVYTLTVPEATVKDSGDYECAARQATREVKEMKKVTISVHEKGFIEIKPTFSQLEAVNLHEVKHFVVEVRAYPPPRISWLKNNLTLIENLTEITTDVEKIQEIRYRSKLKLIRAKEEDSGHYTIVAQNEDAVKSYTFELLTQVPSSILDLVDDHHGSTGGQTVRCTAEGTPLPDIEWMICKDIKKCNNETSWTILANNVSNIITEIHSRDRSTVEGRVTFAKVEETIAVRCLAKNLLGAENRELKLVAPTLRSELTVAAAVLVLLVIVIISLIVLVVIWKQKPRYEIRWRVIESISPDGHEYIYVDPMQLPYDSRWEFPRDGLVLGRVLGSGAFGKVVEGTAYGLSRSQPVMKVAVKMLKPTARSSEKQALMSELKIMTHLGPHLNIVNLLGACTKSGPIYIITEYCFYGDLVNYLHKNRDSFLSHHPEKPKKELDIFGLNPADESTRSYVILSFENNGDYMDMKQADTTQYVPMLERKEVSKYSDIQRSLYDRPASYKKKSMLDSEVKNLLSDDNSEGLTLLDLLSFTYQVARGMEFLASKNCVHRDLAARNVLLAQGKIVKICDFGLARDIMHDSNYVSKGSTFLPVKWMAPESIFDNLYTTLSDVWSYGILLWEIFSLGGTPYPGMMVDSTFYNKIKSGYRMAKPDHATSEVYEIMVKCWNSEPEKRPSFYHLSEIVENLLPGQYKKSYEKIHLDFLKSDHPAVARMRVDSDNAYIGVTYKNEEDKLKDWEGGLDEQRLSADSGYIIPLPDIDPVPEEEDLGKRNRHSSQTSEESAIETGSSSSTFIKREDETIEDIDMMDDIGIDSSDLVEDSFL

K562 [8] = test: Cell cycle arrest in human K562 cells assessed as G1/G2-M ratio at GI50 concentration after 24 hrs by propidium iodide staining-based flow cytometry relative to control; format: functional

SMILES | pIC50 [4] | pIC50 [7] | GI50 (EOL1 [1]) [µM] | GI50 (MCF7) [µM] | Ratio (HCC827 [2]) | GI50 (HCC827 [3]) [µM] | GI50 (BT-474) [µM] | Ratio (EOL1 [5]) | GI50 (K562 [6]) [µM] | Ratio (K562 [8])
CC(C)CCn1cnc2c(Nc3ccccc3)nc(N[C@H]3CC[C@H](N)CC3)nc21 | 6.20 | 7.02 | 0.01 | 5.4 | 0.39 | 21.7 | 6.4 | 1.67 | 3.5 | 1.2
COc1ccc(Nc2nc(N[C@H]3CC[C@H](N)CC3)nc3c2ncn3CCC(C)C)c(OC)c1 | 5.22 | 5.50 | 0.63 | 6.3 | 23.09 | 32.9 | 7.9 | 1.65 | 5.5 | 1
CS(=O)(=O)CCNCc1ccc(-c2ccc3ncnc(Nc4ccc(OCc5cccc(F)c5)c(Cl)c4)c3c2)o1 [LAPATINIB] |  |  | 0.41 | 8.1 |  | 22.3 | 0.2 |  | 5.7 | 
N[C@H]1CC[C@H](Nc2nc(Nc3ccc(O)cc3)c3ncn(C4CCCCC4)c3n2)CC1 | 5.84 | 5.91 | 0.22 | 9.6 | 9.61 | 32.5 | 27.3 | 2.44 | 8.9 | 0.95
COc1cc(Nc2nc(N[C@H]3CC[C@H](N)CC3)nc3c2ncn3CCC(C)C)cc(OC)c1 | 6.01 | 6.54 | 0.14 | 4.5 | 1.47 | 11.2 | 5.9 | 3.71 | 2.5 | 1.6
CCCCCCn1cnc2c(Nc3ccc(O)cc3)nc(N[C@H]3CC[C@H](N)CC3)nc21 | 6.31 | 6.34 | 0.19 | 3.5 | 0.44 | 24.7 | 7.7 | 2.5 | 5.4 | 0.69
CCCCn1cnc2c(Nc3ccccc3)nc(N[C@H]3CC[C@H](N)CC3)nc21 | 6.87 | 6.80 | 0.02 | 2.2 | 0.33 | 9 | 4.9 | 4.93 | 3.2 | 2.29
CCn1cnc2c(Nc3cccc(Cl)c3)nc(N[C@@H]3CCCC[C@@H]3N)nc21 | 7.77 | < 4.70 | 0.99 | 3.3 | 0.29 | 12.2 | 5.4 | 1.28 | 4.8 | 0.48
N[C@H]1CC[C@H](Nc2nc(Nc3ccc(Cl)cc3)c3ncn(C4CCCCC4)c3n2)CC1 | 6.02 | 5.96 | 0.14 | 2.3 | 2.68 | 9.1 | 4.1 | 2.64 | 1.7 | 0.79
CC(C)CCn1cnc2c(Nc3ccc(O)cc3)nc(N[C@H]3CC[C@H](N)CC3)nc21 | 6.31 | 6.82 | 0.03 | 3.1 | 2.71 | 14.4 | 7.7 | 1.17 | 4.6 | 0.73
CCCCn1cnc2c(Nc3cc(OC)cc(OC)c3)nc(N[C@H]3CC[C@H](N)CC3)nc21 | 6.35 | 5.83 | 0.37 | 4.5 | 1.35 | 20.1 | 15.6 | 1.3 | 2.4 | 0.82
CCCCCCn1cnc2c(Nc3cc(OC)cc(OC)c3)nc(N[C@H]3CC[C@H](N)CC3)nc21 | 6.17 | 5.85 | 0.38 | 3.5 | 9.67 | 9.1 | 3.7 | 3.78 | 1.9 | 1.4

Further lines, with some results ahead:

pIC50 [4] | pIC50 [7] | SMILES | GI50 (EOL1 [1]) [µM] | GI50 (MCF7) [µM] | Ratio (HCC827 [2]) | GI50 (HCC827 [3]) [µM] | GI50 (BT-474) [µM] | Ratio (EOL1 [5]) | GI50 (K562 [6]) [µM] | Ratio (K562 [8])
6.93 | 7.22 | CCCCn1cnc2c(Nc3ccc(Cl)cc3)nc(N[C@H]3CC[C@H](N)CC3)nc21 | 0.05 | 2.1 | 0.28 | 10.8 | 7.3 | 6.43 | 2.7 | 1.52
6.30 | 6.71 | CCCCCCn1cnc2c(Nc3cccc(Cl)c3)nc(N[C@H]3CC[C@H](N)CC3)nc21 | 0.31 | 2.7 | 7.37 | 10.2 | 5.1 | 1.86 | 2.3 | 0.79
6.68 | < 4.70 | CCCCn1cnc2c(NCc3cccc(Cl)c3)nc(N[C@H]3CC[C@H](N)CC3)nc21 | 0.35 | 2.2 | 0.26 | 10.6 | 4.7 | 0.99 | 4.3 | 1.27
5.26 | 5.12 | COc1ccc(Cn2cnc3c(Nc4cccc(Cl)c4)nc(N[C@H]4CC[C@H](N)CC4)nc32)cc1 | 0.53 | 4.8 | 1.94 | 18.7 | 8.2 | 0.96 | 2.8 | 1.43
6.88 | 6.81 | CCCCn1cnc2c(Nc3cccc(Cl)c3)nc(N[C@H]3CC[C@H](N)CC3)nc21 | 0.16 | 2 | 0.54 | 7.2 | 5.1 | 10.75 | 2 | 0.78
5.55 | 5.29 | N[C@H]1CC[C@H](Nc2nc(Nc3cccc(Cl)c3)c3ncn(Cc4ccccc4)c3n2)CC1 | 0.38 | 3.6 | 10.37 | 13.7 | 10.2 | 0.99 | 3 | 1.76
6.51 | < 4.70 | CC(C)CCn1cnc2c(NCc3cccc(Cl)c3)nc(N[C@H]3CC[C@H](N)CC3)nc21 | 1.33 | 4.7 | 2.5 | 16.7 | 6.6 | 1.77 | 3.1 | 1.85
5.14 | 5.32 | CC(C)=CCC/C(C)=C/Cn1cnc2c(Nc3cccc(Cl)c3)nc(N[C@H]3CC[C@H](N)CC3)nc21 | 0.59 | 3.6 | 1.94 | 18.2 | 4.3 | 1.13 | 2.2 | 1.78
6.29 | 7.18 | CC(C)CCn1cnc2c(Nc3cccc(O)c3)nc(N[C@H]3CC[C@H](N)CC3)nc21 | 0.06 | 12.6 | 5.6 | 21.3 | 14.7 | 8.94 | 7.6 | 1.22
6.64 | 6.73 | CC(C)=CCn1cnc2c(Nc3cccc(Cl)c3)nc(N[C@H]3CC[C@H](N)CC3)nc21 | 0.08 | 4.2 | 2.69 | 13.5 | 7 | 3.1 | 3.5 | 0.75
6.50 | 7.23 | CC(C)CCn1cnc2c(Nc3ccc(Cl)cc3)nc(N[C@H]3CC[C@H](N)CC3)nc21 | 0.09 | 2.7 | 3.5 | 10.2 | 5.1 | 7.8 | 1.8 | 0.81
6.36 | 6.81 | CCCCCCn1cnc2c(Nc3ccc(Cl)cc3)nc(N[C@H]3CC[C@H](N)CC3)nc21 | 0.44 | 4.2 | 5.2 | 11.7 | 5.5 | 4.61 | 2.1 | 0.88
